Experimental data as given in patent US12577584B2, “Non-HLA matched humanized NSG mouse model with patient-derived xenograft” (The Jackson Laboratory, priority 2015, dated 2026).
Entries after “also recorded” stand apart in the source; their conditions may differ.

Tests used:
[1] = system: colon cancer CN1572P5 PDX; assay: Tumor growth of colon cancer CN1572P5 PDX in non-HLA matched Hu-CD34 NSG mice; format: in vivo, mouse; settings: tumor growth curves over 21 days; 5-FU i.v. about 20 mg/kg Q7dx2; Avastin i.p. about 10 mg/kg twice a week, 5 doses
Procedure: To test whether the subject Hu-CD34 NSG™ mice with non-HLA matched PDX can be used to evaluate drug efficacy against the PDX, using clinically relevant standard-of-care (SOC) treatments, tumor growth curves over 21 days were obtained for a negative control/vehicle group, and two treatment groups using 5-FU and Avastin, respectively, against the colon cancer CN1572P5 PDX. Specifically, 5-FU was administered i.v. at a dose of about 20 mg/kg body weight, Q7d×2 (every 7 days, 2 total doses). Avastin was administered i.p. at a dose of about 10 mg/kg body weight, twice a week, 5 total doses. Vehicle (D5W) was administered i.v., Q7d×3.

[2] = system: non-small-cell lung cancer, melanoma, and renal-cell cancer; settings: 296 patients; cited from earlier work
[3] = system: breast cancer cell line MDA-MB-231; assay: Tumor growth of PD-L1+ MDA-MB-231 breast cancer model in non-HLA matched Hu-CD34 NSG mice; format: in vivo, mouse; settings: for tumor growth of MDA-MB-231 tumors: growth curves over 21 days, cisplatin i.v. about 2 mg/kg Q7dx2
Procedure: First, to determine if the checkpoint inhibitor pembrolizumab (Keytruda) is efficacious in the subject non-HLA matched PDX humanized NSG model, a PDX huNSG model was established according to the methods of the invention. […] This cell line expresses very high levels of PD-L1 on the tumor cell surface that can bind to PD-1 on T-cells and induce anergy—about 94.3% of the MDA-MB-231 cells expressed PD-L1. The tumor-engrafted humanized NSG mice were then treated either with vehicle, Cisplatin, or Prembrolizumab (Keytruda).
(§1) Tumor growth curves over 21 days were obtained for a negative control/vehicle group, and two treatment groups using cisplatin and pembrolizumab (Keytruda), respectively, against the MDA-MB-231 PDX. Specifically, cisplatin was administered i.v. at a dose of about 2 mg/kg body weight, Q7d×2 (every 7 days, 2 total doses). Pembrolizumab (Keytruda) was administered i.p. at a dose of about 5-10 mg/kg body weight, Q5d×4 (every 5 days, 4 total doses). Vehicle (Saline) was administered i.p., Q5d×4.
At the termination of the growth study, peripheral blood of the experimental mice were collected and assayed for human CD19^+ B cells and human CD4^+ and CD8^+ T-cells.
Tumors were also collected and assayed for human CD4^+ and CD8^+ infiltrating T-cells.

breast cancer BR1126 PDX = assay: Tumor growth of PD-L1+ TNBC BR1126 breast cancer PDX in non-HLA matched Hu-CD34 NSG mice; format: in vivo, mouse; settings: for tumor growth compared to the vehicle control: growth curves over 21 days, cisplatin i.v. about 2 mg/kg Q7dx3, Keytruda i.p. about 5-10 mg/kg Q5dx4
Procedure: Specifically, humanized NSG mice were engrafted with 5×10^6 of non-HLA matched PD-L1-positive breast cancer cell line BR1126 cells per mouse via s.c. inoculation. This can be done with the presence of matrigel. About 56.9% of the BR1126 cells expressed PD-L1.
as §1, with “the BR1126” for “the MDA-MB-231”, “weight, Q7d×3” for “weight, Q7d×2”, “days, 3” for “days, 2”
Tumors from the Keytruda-treated mice were collected at the end of the study and examined for lymphocyte infiltration.

[4] = system: CD45+CD8+ infiltrating T lymphocytes in PDX tumor samples; assay: Immuno-staining of treated PDX tumor samples for CD45+CD8+ infiltrating T lymphocytes; format: in vivo, mouse; settings: compared to chemotherapy alone
Procedure: In a similar experiment, immuno-staining was conducted on PDX tumor samples treated by chemotherapy alone, anti-PD1 agent Keytruda, and anti-CTLA4 agent ipilimumab, for the presence of CD45^+CD8^+ infiltrating T lymphocytes.

lung cancer LG1306 PDX = assay: Tumor growth of PD-L1+ LG1306 lung cancer PDX in non-HLA matched Hu-CD34 NSG mice; format: in vivo, mouse
Procedure: Specifically, humanized NSG mice were engrafted with 5×10^6 of non-HLA matched PD-L1-positive PDX lung cancer cell line LG1306 per mouse. About 89.1% of the LG1306 cells expressed PD-L1.
Tumor growth curves over 24 days were obtained for a negative control/vehicle group, and two treatment groups using pembrolizumab (Keytruda), with or without the anti-mitotic chemotherapeutic agent Decotaxol, against the LG1306 PDX. Specifically, Decetaxol, when present, was administered i.v. at a dose of about 10 mg/kg body weight, Q7d×4 (every 7 days, 4 total doses). Pembrolizumab (Keytruda) was administered i.p. at a dose of about 5 mg/kg body weight, Q5d×6 (every 5 days, 6 total doses). Vehicle (Saline) was administered i.p., Q5d×6.

[5] = Keytruda i.p. about 5-10 mg/kg Q5dx4

Compound	efficacy against the non-HLA matched colon cancer PDX (tumor volume) [1]	tumor growth of MDA-MB-231 tumors [3, 5]	tumor growth compared to the vehicle control (breast cancer BR1126 PDX)	presence of CD45+CD8+ infiltrating T lymphocytes in PDX tumor samples [4]	other results
Avastin: clinically relevant standard-of-care (SOC) anti-cancer drug	effective				
O=c1[nH]cc(F)c(=O)[nH]1 [5-FU]	effective				
nivolumab: fully human IgG4 monoclonal antibody against PD-1					clinical response [2]: complete or partial responses
N.N.[Cl][Pt][Cl] [Cisplatin, cisplatin]		only marginally reduced the growth rate	significantly reduced tumor growth		
ipilimumab: anti-CTLA4 agent; FDA-approved CTLA-4 inhibitor for treating melanoma				strong presence	
Keytruda: anti-PD-1 antibody drug; highly selective, humanized IgG4-kappa monoclonal antibody against PD-1		delayed tumor growth significantly	significantly reduced tumor growth	strong presence	time after start of treatment to significant tumor growth delay [3, 5]: ≤ 2 weeks; human T and B cells in peripheral blood and infiltrating T cells (TILs) in tumors versus other treatment groups ([3]; at termination of the growth study): absence of additional TILs; tumor lymphocyte infiltration compared to the vehicle treated mice (breast cancer BR1126 PDX; tumors collected at the end of the study): did not increase tumor infiltration; mice not responding (lung cancer LG1306 PDX; Keytruda alone): one of 10; tumor growth of LG1306 PDX compared to vehicle-treated controls (lung cancer LG1306 PDX; growth curves over 24 days, Keytruda i.p. about 5 mg/kg Q5dx6, Docetaxel i.v. about 10 mg/kg Q7dx4, all mice): reduced growth; also recorded: effective; tumor growth, non-responding mouse taken out of the calculations (lung cancer LG1306 PDX; one Keytruda non-responder excluded): significant decrease in tumor growth
